Tested on: intestinal polyps (adenomas)
Test: in vivo standard pharmacological test procedure emulating familial adenomatous polyps (FAP) using the Min mouse; polyp count
Set-up: species or system Min mouse (C57BL/6J-Min/+)
Conditions: for Number of Polyps: 60 days
Excerpt: The procedure described below emulates familial adenomatous polyps (FAP) in humans using the Min mouse (C57BL/6J-Min/+), which is a strain which has lost […] copies of the APC gene. These animals develop multiple intestinal polyps (adenomas) that ultimately progress to form adenocarcinomas. The polyps that develop in Min mice express EGFR and have activated COX-2. […] The following briefly describes the procedure used and the results obtained in this standard pharmacological test procedure.
The animals were treated for 60 days. The food was weighed once per week to determine consumption, and the animals also weighed weekly. On day 61, the animals were euthanized with CO2 inhalation, and the entire intestinal tract from stomach to anus was removed. The intestinal tract was injected with Bouins fixative, and allowed to fix for several days. The intestinal tracts were then opened and the number of polyps counted. Statistical analysis was performed using the Student's t-Test; a p value of ≦0.05 is considered statistically significant.
The above standard pharmacological test procedure was run again using (4-dimethylamino-but-2-enoic acid [4-(3-chloro-4-fluoro-phenylamino)-3-cyano-7-ethoxy-quinolin-6-yl]-amide as a representative EGFR kinase inhibitor, as follows. Test animals were divided into four treatment groups: Group I, control; Group II, (4-dimethylamino-but-2-enoic acid [4-(3-chloro-4-fluoro-phenylamino)-3-cyano-7-ethoxy-quinolin-6-yl]-amide Group III, sulindac; and Group IV, combination of sulindac and (4-dimethylamino-but-2-enoic acid [4-(3-chloro-4-fluoro-phenylamino)-3-cyano-7-ethoxy-quinolin 6-yl]-amide. The test compound was blended with a standard murine chow and animals were given ad libitum access to the food, in quantities corresponding to the following approximate daily dosages: Group II—20 mg/kg/(4-dimethylamino-but-2-enoic acid [4-(3-chloro-4-fluoro-phenylamino)-3-cyano-7-ethoxy-quinolin-6-yl]-amide, Group III—5 mg/kg/day sulindac; and Group IV—20 mg/kg/(4-dimethylamino-but-2-enoic acid [4-(3-chloro-4-fluoro-phenylamino)-3-cyano-7-ethoxy-quinolin-6-yl]-amide and 5 mg/kg/day sulindac. The animals were treated for 60 days. The food was weighed once per week to determnine consumption, and the animals also weighed weekly. On day 61, the animals were euthanized with CO2 inhalation, and the entire intestinal tract from stomach to anus was removed. The intestinal tract was injected with Bouins fixative, and allowed to fix for several days. The intestinal tracts were then opened and the number of polyps counted. Statistical analysis was performed using the Students t-Test; a p value of ≦0.05 is considered statistically significant.

Row | Compound | Number of Polyps (first run, 40 mg/kg/day in chow, counted day 61, control 32.3 ± 20.7) | Number of Polyps (first run, 20 mg/kg/day sulindac in chow, counted day 61, control 32.3 ± 20.7) | Number of Polyps (third run, 5 mg/kg/day sulindac in chow, control 19.5 ± 14.1) | reduction of polyp numbers (in words) (third run, sulindac alone at the 5 mg/kg dose)
1 | CC#CC(=O)Nc1ccc2ncnc(Nc3cccc(Br)c3)c2c1 | 15.6 ± 10.6 |  |  | 
2 | CC1=C(CC(=O)O)c2cc(F)ccc2/C1=C\c1ccc([S+](C)[O-])cc1 (stereo not shown) [sulindac] |  | 10.0 ± 6.6 | 20.6 ± 11.8 | did not reduce polyp numbers at all

Source: US6432979B1, “Method of treating or inhibiting colonic polyps and colorectal cancer” (American Cyanamid Company, priority 1999, dated 2002)
